This note sets out measurements from ChEMBL document CHEMBL1201862, “PubChem BioAssay data set” (2004).

Some test systems named below: 786-0; CAKI-1; DMS-114; HCT-15; HOP-62; HT-29; K562; NCI-H460; SF-295; SF-539; SK-MEL-2; SNB-19; UACC-257; CCRF-CEM; DU-145; HCC 2998; M14; MDA-MB-435; NCI/ADR-RES; T47D.
Experiment in all cases: NCI-60 cell line screen, 48 h

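Compound exposure: 48 hours, 5 concentrations, 96-well plates. Abbreviation: GI50, concentration required for 50% inhibition of growth.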 The source made the active and inactive calls. No stated cut-off is given here; in the data, active = GI50 up to about 1.1 µM and inactive = higher.

As to `C[C@@]12CCCC(=O)N1[C@@H](CO)C(c1ccccc1)O2` (stereo partly drawn), the GI50 in the experiment on 786-0 is > 100 µM (inactive); in the experiment on CAKI-1, > 100 µM (inactive); in the experiment on DMS-114 it was > 100 µM (inactive); in the experiment on HCT-15 it was above 100 µM; in the experiment with HOP-62 it was > 100 µM (inactive); in the experiment with HT-29, > 100 µM (inactive). Further, the GI50 in the experiment with K562, in the experiment with NCI-H460, with SF-295, in the experiment with SF-539, with SK-MEL-2 and with SNB-19 was > 100 µM (inactive) in each case. Also, the GI50 with UACC-257 is > 100 µM (inactive).
Regarding `CCOC(=O)c1c(N2CCOCC2)[nH]c(=O)c(C(c2c(O)c(C(=O)OCC)c(N3CCOCC3)[nH]c2=O)C(C)C)c1O`, the GI50 in the experiment with 786-0 was 60.1 µM (inactive); in the experiment with CAKI-1, > 100 µM (inactive); with CCRF-CEM, > 100 µM (inactive); in the experiment with DU-145, > 100 µM (inactive); in the experiment on HCC 2998, > 100 µM (inactive); in the experiment on HCT-15 it was above 100 µM. Further, the GI50 is 60.4 µM (inactive) with HOP-62; > 100 µM (inactive) in the experiment with HT-29; > 100 µM (inactive) with K562; > 100 µM (inactive) with M14; > 100 µM (inactive) in the experiment with MDA-MB-435; > 100 µM (inactive) with NCI-H460. In addition, the GI50 in the experiment on NCI/ADR-RES is > 100 µM (inactive); in the experiment with SF-295, 58.3 µM (inactive); with SF-539, > 100 µM (inactive); with SK-MEL-2, > 100 µM (inactive); with SNB-19, 83.6 µM (inactive); with T47D, > 100 µM (inactive). Further, in the experiment with UACC-257, the GI50 is > 100 µM (inactive).
Turning to `O=C1C(Cl)C(c2cc3cc(Br)ccc3nc2Cl)N1c1ccc(Cl)cc1` (stereo not drawn), the GI50 in the experiment with 786-0 was 4.65 µM (inactive); in the experiment with CAKI-1, 4.43 µM (inactive); with CCRF-CEM it was 3.08 µM (inactive); with DU-145, 6.95 µM (inactive); with HCC 2998, 4.36 µM (inactive); with HCT-15 it was 4.86 µM. The GI50 is 9.68 µM (inactive) in the experiment on HOP-62; 7.16 µM (inactive) in the experiment with HT-29; 5.81 µM (inactive) in the experiment on K562; 5.85 µM (inactive) with M14; 5.82 µM (inactive) in the experiment with MDA-MB-435; 6.59 µM (inactive) with NCI-H460. Moreover, the GI50 in the experiment with NCI/ADR-RES was 5.75 µM (inactive); in the experiment on SF-295, 9.68 µM (inactive); in the experiment on SF-539, 4.33 µM (inactive); in the experiment with SK-MEL-2, 4.37 µM (inactive); in the experiment on SNB-19 it was 8.43 µM (inactive); in the experiment on T47D it was 6.65 µM (inactive). Besides, in the experiment with UACC-257, the GI50 was 4.81 µM (inactive).
On to `COCN1C(N)=C(C(=O)OC(C)(C)C)C2=CC(=O)C=CC21C` (stereo not drawn), for which the GI50 in the experiment on 786-0 was 11.9 µM (inactive); in the experiment with CAKI-1, 15.2 µM (inactive); in the experiment on CCRF-CEM it was 3.66 µM (inactive); in the experiment on DU-145 it was 11.9 µM (inactive); in the experiment with HCC 2998, 22.6 µM (inactive); in the experiment on HCT-15, 13.9 µM. The GI50 with HOP-62 is 28.4 µM (inactive); in the experiment with HT-29 it was 6.64 µM (inactive); in the experiment on K562, 4.92 µM (inactive); with M14 it was 15.8 µM (inactive); with MDA-MB-435, 13.2 µM (inactive); in the experiment on NCI-H460 it was 18.4 µM (inactive). The GI50 is 25.2 µM (inactive) with NCI/ADR-RES; 43.6 µM (inactive) with SF-295; 17.4 µM (inactive) in the experiment with SF-539; 17.3 µM (inactive) in the experiment with SK-MEL-2; > 100 µM (inactive) in the experiment with SNB-19; 2.59 µM (inactive) with T47D. The GI50 with UACC-257 was 10.6 µM (inactive).
For `COc1ccc(C(c2ccc3c(c2)OCO3)N2C(=O)CCC2C(=O)O)cc1` (stereo not drawn), the GI50 with 786-0 was > 100 µM (inactive); in the experiment with CAKI-1, > 100 µM (inactive); with CCRF-CEM, > 100 µM (inactive); with DU-145 it was > 100 µM (inactive); with HCC 2998, > 100 µM (inactive); with HCT-15, above 100 µM. In addition, the GI50 in the experiment with HOP-62, in the experiment with HT-29, with K562, in the experiment on M14, in the experiment on MDA-MB-435 and with NCI-H460 was > 100 µM (inactive) in each case. The GI50 in the experiment with NCI/ADR-RES, with SF-295, with SF-539, in the experiment on SK-MEL-2, with SNB-19 and with T47D was > 100 µM (inactive) each time. Also, the GI50 with UACC-257 is > 100 µM (inactive).
`Cc1cccc(Nc2nc3ccccc3nc2NS(=O)(=O)c2ccccc2)c1`: the GI50 in the experiment on 786-0 is 39.4 µM (inactive); with CAKI-1 it was 44.1 µM (inactive); with CCRF-CEM, 18.2 µM (inactive); with DU-145 it was 44.3 µM (inactive); with HCC 2998, 0.721 µM (active); with HCT-15 it was 16 µM. Also, the GI50 with HOP-62 is 27.5 µM (inactive); in the experiment with HT-29, 26.6 µM (inactive); with K562 it was 72.1 µM (inactive); in the experiment on M14, 38.3 µM (inactive); in the experiment with MDA-MB-435 it was 46.6 µM (inactive); in the experiment on NCI-H460, 15.6 µM (inactive). The GI50 with NCI/ADR-RES is 20 µM (inactive); in the experiment on SF-295, 14.5 µM (inactive); with SF-539, 33.8 µM (inactive); in the experiment with SK-MEL-2, 14.3 µM (inactive); in the experiment with SNB-19, 18.1 µM (inactive); in the experiment with T47D it was 18.5 µM (inactive). In the experiment on UACC-257, the GI50 was 26.1 µM (inactive).
Consider `COc1ccc2c(=O)c3ccoc3n(CC=C(C)C)c2c1` [ACROPHYLLINE], for which the GI50 in the experiment with 786-0 was > 91.6 µM (inactive); in the experiment on CAKI-1, 2.99 µM (inactive); with CCRF-CEM, 39.4 µM (inactive); with DU-145, 34 µM (inactive); with HCC 2998 it was > 91.4 µM (inactive); in the experiment on HCT-15 it was 35.6 µM. Moreover, the GI50 in the experiment with HOP-62 was > 79.1 µM (inactive); in the experiment on HT-29 it was 47.2 µM (inactive); in the experiment on K562, 48.9 µM (inactive); in the experiment on M14, 64.4 µM (inactive); with MDA-MB-435 it was 75.9 µM (inactive); in the experiment with NCI-H460 it was 50.2 µM (inactive). The GI50 in the experiment on NCI/ADR-RES was 18.8 µM (inactive); in the experiment on SF-295 it was 57.9 µM (inactive); in the experiment with SF-539 it was 97.1 µM (inactive); in the experiment with SK-MEL-2, 81.7 µM (inactive); with SNB-19 it was > 76.6 µM (inactive); with T47D, 36.1 µM (inactive). Further, in the experiment with UACC-257, the GI50 is 75.2 µM (inactive).
As for `CC(C)N(C(C)C)S(=O)(=O)C[C@]12CC[C@H](CC13OCC(CS(=O)(=O)c1ccccc1)O3)C2(C)C` (stereo partly drawn), the GI50 with 786-0 was 45.9 µM (inactive); in the experiment on CAKI-1, 81.3 µM (inactive); in the experiment with CCRF-CEM it was 32.1 µM (inactive); in the experiment with DU-145, 74.6 µM (inactive); in the experiment on HCC 2998, 54.5 µM (inactive); in the experiment on HCT-15, 47 µM. Besides, the GI50 with HOP-62 is > 51.2 µM (inactive); with HT-29, 33.4 µM (inactive); in the experiment on K562 it was 24.5 µM (inactive); in the experiment on M14, 47 µM (inactive); in the experiment with MDA-MB-435 it was 47.1 µM (inactive); in the experiment with NCI-H460, 39.2 µM (inactive). Moreover, the GI50 in the experiment on NCI/ADR-RES is 41.9 µM (inactive); in the experiment on SF-295, 28.4 µM (inactive); with SF-539, 44.8 µM (inactive); in the experiment on SK-MEL-2, 52.5 µM (inactive); in the experiment on SNB-19 it was 95.7 µM (inactive); in the experiment with T47D, 27.1 µM (inactive). Besides, the GI50 in the experiment on UACC-257 is 28.2 µM (inactive).
For `COC(=O)c1ccccc1/C=C1\Cc2cc(C)c(C)cc2C1=O`, the GI50 is 54.8 µM (inactive) in the experiment on 786-0; > 100 µM (inactive) in the experiment on CAKI-1; > 100 µM (inactive) with CCRF-CEM; > 100 µM (inactive) with DU-145; > 100 µM (inactive) in the experiment on HCC 2998; above 100 µM in the experiment with HCT-15. For the same compound, the GI50 is 30.4 µM (inactive) in the experiment on HOP-62; > 100 µM (inactive) in the experiment on HT-29; > 100 µM (inactive) in the experiment with K562; > 100 µM (inactive) in the experiment with M14; > 100 µM (inactive) in the experiment on MDA-MB-435; > 100 µM (inactive) with NCI-H460. Also, the GI50 in the experiment with NCI/ADR-RES was > 100 µM (inactive); in the experiment on SF-295 it was 49.3 µM (inactive); in the experiment with SF-539, > 100 µM (inactive); in the experiment on SK-MEL-2, 14 µM (inactive); in the experiment on SNB-19, 33.4 µM (inactive); in the experiment on T47D, > 100 µM (inactive). Also, the GI50 in the experiment on UACC-257 was > 100 µM (inactive).
Consider `O=C1CSC(c2ccccc2O)N1c1nc2cc3sc(N4C(=O)CSC4c4ccccc4O)nc3cc2s1` (stereo not drawn), for which the GI50 in the experiment on 786-0 is > 100 µM (inactive); with CAKI-1, 37.4 µM (inactive); in the experiment on CCRF-CEM it was 3.93 µM (inactive); with DU-145, 34.7 µM (inactive); with HCC 2998, > 100 µM (inactive); in the experiment with HCT-15 it was 7.05 µM. Moreover, the GI50 was > 100 µM (inactive) in the experiment with HOP-62; 20 µM (inactive) in the experiment with HT-29; 64.3 µM (inactive) with K562; > 69.5 µM (inactive) in the experiment on M14; 34.3 µM (inactive) in the experiment with MDA-MB-435; 2.3 µM (inactive) in the experiment with NCI-H460. Besides, the GI50 was 8.47 µM (inactive) with NCI/ADR-RES; > 100 µM (inactive) with SF-295; 59.6 µM (inactive) with SF-539; > 100 µM (inactive) with SK-MEL-2; 42 µM (inactive) in the experiment on SNB-19; 47.8 µM (inactive) in the experiment with T47D. The GI50 in the experiment on UACC-257 was > 36.3 µM (inactive).
With `COC(=O)/C=C(/C=C1/C(C#N)=C(N)N(c2ccc(Cl)cc2)C1(C)/C(=C/C(=O)OC)C(=O)OC)C(=O)OC` (stereo not drawn), the GI50 in the experiment on 786-0 was 40.3 µM (inactive); in the experiment on CAKI-1, > 100 µM (inactive); in the experiment on CCRF-CEM, 27 µM (inactive); with DU-145, 60.3 µM (inactive); with HCC 2998, 82.6 µM (inactive); in the experiment on HCT-15, 23.8 µM. The GI50 in the experiment with HOP-62 is > 100 µM (inactive); with HT-29, 33.4 µM (inactive); with K562, 20.6 µM (inactive); with M14, 76.9 µM (inactive); with MDA-MB-435, 52.4 µM (inactive); in the experiment with NCI-H460 it was 40.6 µM (inactive). Further, the GI50 in the experiment on NCI/ADR-RES was 53 µM (inactive); in the experiment with SF-295, 53.1 µM (inactive); with SF-539 it was > 100 µM (inactive); with SK-MEL-2, > 100 µM (inactive); in the experiment on SNB-19, > 100 µM (inactive); in the experiment with T47D, 49.1 µM (inactive). In addition, the GI50 with UACC-257 is 63.4 µM (inactive).
